The test system of assay [1] is male Sprague Dawley rat (SD rat). Nature of the assay: Evaluation of the effect of preventing nerve damage: transient focal MCAO/R model, infarct volume by TTC staining. In kind it is in vivo. The settings on record: 50 mg/kg intraperitoneal injection once 10 minutes before, 1 hour ischemia, 24 hours blood reperfusion, sum of seven brain slices, 5 SD rats. How it is done:
The specific solvent was made of dimethyl sulfoxide (DMSO), cremophor EL (CrEL) and water, with the relative volume ratio of 10:20:70, respectively. Besides the foresaid experimental groups, only pure solvent used was treated as vehicle group, and a sham group, which was not administrated with any compound or solvent or with nylon monofilament to cause obstruction and ischemia, was also included.
In this test example, transient focal Middle Cerebral Artery Occlusion/ Reperfusion model (MCAO/R model) was adopted to simulate ischemic stroke for evaluating the subsequent nerve damage. Specifically, male Sprague Dawley rat (SD rat) was adopted and anaesthetized with 2% isoflurane, and then the right common carotid artery, external carotid artery and internal carotid artery were distinguished among them from the neck.
Next, a nylon monofilament with length of 22 millimeters (mm), size number of 4/0 and capped with polysiloxane was inserted into the external carotid artery and along with the […] of Willis to induce obstruction and ischemia in the middle cerebral artery. After causing obstruction and ischemia for 1 hour, the nylon monofilament was removed to allow the blood recirculated to the brain, in other words, to undergo blood reperfusion.
After blood reperfusion for 24 hours, the rat was sacrificed and the brain thereof was placed into a cooled 0.95% saline. Then, 1 mm part of the brain tip was excised, and the rest of the brain was cut in coronal section to obtain seven slices of brain tissue with each thickness of 2 mm. Next, those sliced brain tissues were infiltrated with 1% 2,3,5-triphenyltetrazolium chloride (TTC) for 30-minute at room temperature (about 25°C to 27°C). Afterward, the sliced brain tissues were […] with a 4% […] solution, and then MacroPATH Digital Imaging System was used to record the images and the obtained images were analyzed by ImageJ 1.52a to count the infarct volume percent, which could represent the degree of nerve damage. The foresaid infarct volume percent was obtained by adding the values acquired by multiplying the proportion of infarct area of each sliced brain tissue with their thickness, and the proportion of infarct area was calculated by the equation: (B-A)/B×100%; wherein, "A" represented the undamaged area in the damaged cerebral hemisphere on the right side, and "B" represented the total area of the undamaged cerebral hemisphere on the left side.
Here, 10 minutes before processing the foresaid MCAO/R model, the rats were administrated with the test samples of Examples 1 to 15 by intraperitoneal injection for one time. The administration amount was 50 milligrams per kilogram (mg/kg) or 5 ml/kg. The actual applied amount was depended on the weight of the rates. The treatment for the vehicle group was the same as that of the experimental group except only solvent was used.
The results of TTC staining of the seven sliced brain tissues of the groups of Examples 1 to 15, the vehicle group and the sham group were shown in FIG. 2. 5 SD rats were used for each experimental groups of Examples 1 to 15 and the vehicle group, while only 3 SD rats were used for the sham group. Table 2: The total infarct volume percent of Examples 1 to 15, the vehicle group, and the sham group.

The test system is the same in assay [2]. Nature of the assay: Neurobehavioral evaluation (Bederson classification) after MCAO/R. The settings on record: Bederson grade 0 to 4, 50 mg/kg intraperitoneal before MCAO/R.

On to `CCCCc1c(C)c(OC)c2c(c1OC)OCO2` [Example 2], for which the “Total infarct volume percent (%)” value in assay [1] is on record as 30.75%.
`COc1cc(CNC(C)=O)c(OC)c2c1OCO2` [Example 5]: in assay [2], the “Grade, Time point of 0.5-hour after blood reperfusion” value (“Grade, Time point of 0.5-hour” for short) turned out to be 2.40; the “Grade, Time point of 1.5-hour after blood reperfusion” value (“Grade, Time point of 1.5-hour” for short) is given as 2.40; the “Grade, Time point of 24-hour after blood reperfusion” value (“Grade, Time point of 24-hour” for short) was determined as 2.40. Further, in assay [1], the “Total infarct volume percent (%)” value was 20.2%.
As for `COc1ccc(C[C@@H](C)NC(=O)c2cc(OC)c3c(c2OC)OCO3)cc1S(N)(=O)=O` [Example 6], in assay [2], the “Grade, Time point of 0.5-hour” value came out at 2.60; the “Grade, Time point of 1.5-hour” value is reported as 2.40; the “Grade, Time point of 24-hour” value was determined as 2.20. Also, the “Total infarct volume percent (%)” value in assay [1] was 19.67%.
In the case of `COc1cc(C(=O)NCCCC(=O)O)c(OC)c2c1OCO2` [Example 7], in assay [2], the “Grade, Time point of 0.5-hour” value is given as 2.60 and the “Grade, Time point of 1.5-hour” value is given as 2.40. Moreover, the “Grade, Time point of 24-hour” value in assay [2] (50 mg/kg) came to 1.60. Further, in assay [1], the “Total infarct volume percent (%)” value was found to be 15.17%.
Regarding `COc1cc(C(=O)NCCc2ccc(O)c(O)c2)c(OC)c2c1OCO2` [Example 8], in assay [2], the “Grade, Time point of 0.5-hour” value came to 2.40; the “Grade, Time point of 1.5-hour” value turned out to be 2.60; the “Grade, Time point of 24-hour” value amounted to 2.00. In assay [1], the “Total infarct volume percent (%)” value was found to be 22.39%.
In the case of `COc1cc(C(=O)Nc2ccc(O)cc2)c(OC)c2c1OCO2` [Example 9], in assay [2], the “Grade, Time point of 0.5-hour” value is listed as 2.80 and the “Grade, Time point of 1.5-hour” value is on record as 2.40. Moreover, the “Grade, Time point of 24-hour” value in assay [2] (50 mg/kg) was determined as 1.40. Moreover, the “Total infarct volume percent (%)” value in assay [1] is 14.52%.
Consider `COc1cc(C(=O)NCCC(=O)O)c(OC)c2c1OCO2` [Example 10], for which, in assay [2], the “Grade, Time point of 0.5-hour” value is reported as 2.60; the “Grade, Time point of 1.5-hour” value worked out at 2.40; the “Grade, Time point of 24-hour” value worked out at 2.20. In addition, in assay [1], the “Total infarct volume percent (%)” value turned out to be 21.76%.
Turning to `COc1cc(C(=O)N[C@@H](C)C(=O)O)c(OC)c2c1OCO2` [Example 11], in assay [2], the “Grade, Time point of 0.5-hour” value came to 2.80 and the “Grade, Time point of 1.5-hour” value was 2.00. Moreover, the “Grade, Time point of 24-hour” value in assay [2] (50 mg/kg) is recorded as 1.60. The “Total infarct volume percent (%)” value in assay [1] turned out to be 15.93%.
In the case of `COc1cc(C(=O)OCc2ccccc2)c(OC)c2c1OCO2` [Example 12], the “Total infarct volume percent (%)” value in assay [1] is recorded as 35.67%.
The same measure, in the same setting: under `COc1cc(C(=O)Nc2c(C)n(C)n(-c3ccccc3)c2=O)c(OC)c2c1OCO2` [Example 13] stands 32.53%; under `COc1cc(C(=O)Nc2sc(C)cc2C#N)c(OC)c2c1OCO2` [Example 14], 34.77%.
As to `CCOC(=O)c1ccc(NC(=O)c2cc(OC)c3c(c2OC)OCO3)cc1` [Example 15], in assay [2], the “Grade, Time point of 0.5-hour” value was found to be 2.80; the “Grade, Time point of 1.5-hour” value was found to be 2.60; the “Grade, Time point of 24-hour” value is recorded as 2.00. Moreover, the “Total infarct volume percent (%)” value in assay [1] came out at 17.76%.

Source of the values: EP4230622A1, “NERVE DAMAGE PREVENTING AND NERVE PROTECTING COMPOUNDS, PREPARATION METHOD THEREOF, PHARMACEUTICAL COMPOSITION THEREOF, AND THEIR USE” (Genhealth Pharma Co., Ltd., priority 2022, dated 2023).
